The values below come from patent EP0151939A2, “Pyrimidinediones and dihydroxypyrimidines, and process for the preparation of pyrimidinedones and dihydroxypyrimidines” (BAYER AG, priority 1984, dated 1985).

SMILES strings stand for the structures.

What all share (assay type): in vivo
One assay concerns Baumwolle. Put plainly: Post-emergence test. Conditions: 1 kg/ha, rated after three weeks. The text has this:
(§1) Lösungsmittel: 5 Gewichtsteile Aceton Emulgator: 1 Gewichtsteil Alkylarylpolyglykolether Zur Herstellung einer zweckmäßigen Wirkstoffzubereitung vermischt man 1 Gewichtsteil Wirkstoff mit der angegebenen Menge Lösungsmittel, gibt die angegebene Menge Emulgator zu und verdünnt das Konzentrat mit Wasser auf die gewünschte Konzentration.
(§2) Mit der Wirkstoffzubereitung spritzt man Testpflanzen, welche eine Höhe von 5 - 15 cm haben so, daß die jeweils gewünschten Wirkstoffmengen pro Flächeneinheit ausgebracht werden. Die Konzentration der Spritzbrühe wird so gewählt, daß in 2000 1 Wasser/ha die jeweils gewünschten Wirkstoffmengen ausgebracht werden. Nach drei Wochen wird der Schädigungsgrad der Pflanzen bonitiert.

Another assay deals with Bohnen. In words: Post-emergence test. The following applies: 1 kg/ha, rated after three weeks.
Text: as §1, §2

Assay [1] relates to Hafer. In words: Post-emergence test. The following applies: 1 kg/ha, rated after three weeks.
Text: as §1, §2

Assay [2] deals with Mais. Put plainly: Post-emergence test. The following applies: 1 kg/ha, rated after three weeks.
Text: as §1, §2

The subject of assay [3] is Rüben. In words: Post-emergence test. The following applies: 1 kg/ha, rated after three weeks.
Text: as §1, §2

Assay [4] deals with Senf. Put plainly: Post-emergence test. The following applies: 1 kg/ha, rated after three weeks.
Text: as §1, §2

For assay [5], the system named is Weizen. Put plainly: Post-emergence test. The following applies: 1 kg/ha, rated after three weeks.
Text: as §1, §2

Assay [6] has as its system Hafer. Put plainly: Pre-emergence test. The following applies: 2 kg/ha, rated after three weeks. The text has this: (§3) Losungsmittel: 5 Gewichtsteile Aceton Emulgator: 1 Gewichtsteil Alkylarylpolyglykolether
(§4) Zur Herstellung einer zweckmäßigen Wirkstoffzubereitung vermischt man 1 Gewichtsteil Wirkstoff mit der angegebenen Menge Lösungsmittel, gibt die angegebene Menge Emulgator zu und verdünnt das Konzentrat mit Wasser auf die gewünschte Konzentration.
(§5) Samen der Testpflanzen werden in normalen Boden ausgesät und nach 24 Stunden mit der Wirkstoffzubereitung begossen. Dabei hält man die Wassermenge pro Flächeneinheit zweckmäßigerweise konstant. Die Wirkstoffkonzentration in der Zubereitung spielt keine Rolle, entscheidend ist nur die Aufwandmenge des Wirkstoffs pro Flächeneinheit. Nach drei Wochen wird der Schädigungsgrad der Pflanzen bonitiert.

In a further assay the test system is Hirse. In words: Pre-emergence test. The following applies: 2 kg/ha, rated after three weeks.
Text: as §3, §4, §5

Assay [7] concerns Mais. In words: Pre-emergence test. Conditions: 2 kg/ha, rated after three weeks.
Text: as §3, §4, §5

In assay [8] the test system is Senf. In words: Pre-emergence test. Conditions: 2 kg/ha, rated after three weeks.
Text: as §3, §4, §5

The subject of assay [9] is Weizen. In words: Pre-emergence test. Conditions: 2 kg/ha, rated after three weeks.
Text: as §3, §4, §5

The test system of assay [10] is Rüben. In words: Pre-emergence test. The following applies: 2 kg/ha, rated after three weeks.
Text: as §3, §4, §5

Regarding `O=c1[nH]c(C(F)(F)F)c(Cl)c(=O)[nH]1` [Produkt aus Beispiel 13, 5-Chlor-6-trifluor-2,4-(lH,3H)-pyrimidindion], the “Wirkung (Schädigungsgrad der Pflanzen)” value is recorded as “voll-ständig oder nahezu vollständig vernichtet” in the assay with Baumwolle; “voll-ständig oder nahezu vollständig vernichtet” in the assay with Bohnen; “praktisch nicht” with Hafer [1]; “voll-ständig oder nahezu vollständig vernichtet” in the assay with Mais [2]; “praktisch nicht” in the assay with Rüben [3]; “voll-ständig oder nahezu vollständig vernichtet” with Senf [4]. Besides, in the assay with Weizen [5], the “Wirkung (Schädigungsgrad der Pflanzen)” value is on record as “praktisch nicht”.

Regarding `O=c1[nH]c(C(F)(Cl)Cl)c(Cl)c(=O)[nH]1` [Produkt aus Beispiel 16], the “Wirkung (Schädigungsgrad der Pflanzen)” value is recorded as “praktisch nicht” in the assay with Hafer [6]; “praktisch nicht” with Hirse; “praktisch nicht” in the assay with Mais [7]; “zum größeren Teil vernichtet” in the assay on Senf [8]; “praktisch nicht” with Weizen [9].

On to `O=c1[nH]c(C(F)(F)Cl)c(Cl)c(=O)[nH]1` [Produkt aus Beispiel 15], for which the “Wirkung (Schädigungsgrad der Pflanzen)” value in the assay with Hafer [6] is “praktisch nicht”; with Mais [7], “praktisch nicht”; in the assay with Rüben [10] it was “nahezu vollständig ver-nichtet”; with Senf [8], “nahezu vollständig ver-nichtet”; with Weizen [9], “praktisch nicht”; in the assay with Hafer [1], “praktisch nicht”. The “Wirkung (Schädigungsgrad der Pflanzen)” value is listed as “praktisch nicht” in the assay on Mais [2], “vollständig vernichtet” in the assay with Senf [4] and “praktisch nicht” in the assay on Weizen [5].

On to `O=c1[nH]c(C(F)(F)F)c(F)c(=O)[nH]1` [Produkt aus Beispiel 5 und 14, 5-Fluor-6-trifluormethyl-2,4-(lH,3H)-pyrimidindion], for which the “Wirkung (Schädigungsgrad der Pflanzen)” value in the assay on Hafer [6] is on record as “zum größeren Teil ver-nichtet”; in the assay on Mais [7] it was “fast nicht”; in the assay with Senf [8] it was “zum größeren Teil ver-nichtet”; in the assay on Weizen [9], “fast nicht”; with Rüben [3], “vollständig oder nahezu vollständig vernichtet”; in the assay on Senf [4] it was “vollständig oder nahezu vollständig vernichtet”. Moreover, the “Wirkung (Schädigungsgrad der Pflanzen)” value in the assay on Weizen [5] is “praktisch nicht”.
